Common to all, as to format: in vivo
Test [1] deals with Plutella xylostella. The test is described as follows: Test Example 2: cabbage root immersion (systemic), dead pest rate of Plutella xylostella larvae. The following applies: Plutella xylostella, 120 h; test concentration 25 ppm; root immersion 5 days; 10 second-instar larvae; after 5 days at 24° C. Here is the method: In 0.25 mL of a mixture solution of Sorgen TW-20 (manufactured by Daiichi Industries Pharmaceuticals, Co., Ltd.) and acetone (mixture volume ratio; Sorgen TW-20:acetone=1:19), 2.5 mg of the present compound (1), (2), (3), (4), (7), (10), (11), (12), (16), (18), (19), (20), (21), (22), (25), (30), (36), (37), (41), (42), (52), (54), (56), (57), (60), (62), (105) or (109) was dissolved. The solution was diluted with ion-exchanged water so that the active ingredient concentration became to a predetermined concentration to prepare a pesticidal solution for test of the test compound. The root part of cabbages in the fourth leaf period were washed with tap water to remove soils, and then immersed in the pesticidal solution for test. After 5 days from immersion of the root part, the root part was removed, and the leaves and stems were put in a cup (volume; 180 mL). In the cup 10 second-instar larvae of Plutella xylostella were released, and the cup was stored at 24° C. After 5 days, the number of dead pests was counted, and the dead pest rate was calculated by the following equation:
(§1) Dead pest rate(%)=(the number of dead pests/the number of tested pests)×100
The test concentrations of the other present compounds were 25 ppm.

The test system of another test is Coptotermes formosanus. In words: Test Example 8: filter paper bait test, control rate of Coptotermes formosanus. The note with it: filter paper bait treated with 1 mL of 10 mg/mL acetone solution; 20 ergates; 6 weeks in a dark place. The method, then:
A filter paper having a diameter of 33 mm (No. 1026 manufactured by Toyo Filter Paper, Co., Ltd.) was treated with acetone solution (1 mL) of 10 mg/mL of the present compounds (1) or (12) using a pipette, and dried at room temperature. Hereinafter, the resulting filter paper is referred to as a filter paper bait. 4% agarose was poured into a plastic petri dish having a diameter of 9 cm to make the thickness about 5 mm, and solidified by leaving at rest at room temperature. One circular hole having a diameter of 35 mm (hereinafter, referred to as a well) was made in the solidified agarose. One filter paper bait was put into the well. Then, after 20 ergates of Coptotermes formosanus were released in the above petri dish, the petri dish was capped, and sealed with a parafilm. After storing in a dark place for 6 weeks, the petri dish was opened. The control rate was calculated by observing the life and death of the Coptotermes formosanus in the petri dish.

The subject of test [2] is Plutella xylostella. The test is described as follows: Test Example 1: spray on cabbage, dead pest rate of Plutella xylostella larvae. The note with it: Plutella xylostella, 120 h; 500 ppm spray solution, 20 ml/cup on cabbage; 5 second-instar larvae; after 5 days. Here is the method:
Ten parts of the present compound (1), (2), (5) to (19), (21) to (34), (36) to (61), (63), (64), (68) to (71), (74), (76) to (78), (82) to (83), (89), (93), (94), (97), (99), (102) to (110), (111), (115), (116) (117) to (120) or (123) to (134); 35 parts of white carbon containing 50 parts of polyoxyethylene alkyl ether sulfate ammonium salt; and 55 parts of water were mixed, and finely ground by a wet grinding method to obtain a 10% flowable agent. The obtained flowable agent was diluted with water so that the active ingredient concentration became to 500 ppm to prepare a spray solution for test.
Cabbages were planted in polyethylene cups, and grown until the third true leaf or the fourth true leaf was developed. The spray solution for test prepared above was sprayed at a rate of 20 ml/cup on the cabbages.
After the pesticidal solution sprayed onto the cabbages was dried, 5 second-instar larvae of Plutella xylostella were put on the cabbages. After 5 days, the number of dead Plutella xylostella was examined, and a dead pest rate was calculated by the following equation:
as §1

The next test concerns Spondoptela litura. In words: Test Example 3: treated artificial diet (Insecta LF), dead pest rate of Spondoptela litura larvae. The note with it: 144 h, 2 mL on Insecta LF diet, 5 fourth-instar larvae, after 6 days.
Description: Ten parts of the present compound (1) to (5), (7) to (13), (18) to (33), (35) to (49), (52) to (56), (58) to (61), (71), (73) to (77), (79), (80), (82), (83), (93), (94), (95), (96), (97), (100) to (109), (111), (112), (115), (117), (119), (121), or (123) to (133), 35 parts of white carbon containing 50 parts of polyoxyethylene alkyl ether sulfate ammonium salt, and 55 parts of water were mixed, and finely ground by a wet grinding method to obtain a preparation. The obtained preparation was diluted with water so that the active ingredient concentration became to 500 ppm to prepare a pesticidal solution for test. On the bottom of a polyethylene cup having a diameter of 5.5 cm, a filter paper having a diameter of 5.5 cm was placed, on which Insecta LF (Nippon Agriculture Industries, Co., Ltd.) sliced in a thickness of 6 mm and further cut half was laid, and to which 2 mL of the above-described pesticidal solution for test was added. After air-dried, 5 fourth-instar larvae of Spondoptela litura were released in the cup, and the cup was capped. After 6 days, the number of dead pests was counted, and the dead pest rate was calculated by the following equation:
as §1

For test [3], the system named is Plutella xylostella. In words: Test Example 7: cabbage root immersion, Plutella xylostella, against comparative compound D. The note with it: 25 ppm; root immersion 5 days; 10 second-instar larvae; after 5 days at 24° C. The method, then: (§2) In 0.25 mL of a mixed solution of Tween-20 and acetone (mixture volume ratio: Tween-20:acetone=1:19), 2.5 mg of the present compound (94) or comparative compound D was dissolved. The solution was diluted with ion-exchanged water so that the active ingredient concentration became to the predetermined concentration (25 ppm) to prepare a pesticidal solution for test of the test compound. The root part of cabbages in the fourth leaf period was washed with tap water to remove soils, and then immersed in the pesticidal solution for test. After 5 days from immersion of the root part, the root part was removed, and the leaves and stems were put in a ice cream cup (volume; 180 mL). In the cup 10 second-instar larvae of Plutella xylostella were released, and the cup was stored at 24° C. After 5 days, the number of dead pests was countered, and the dead pest rate was calculated by the following equation:
as §1

Test [4] concerns Plutella xylostella. The test is described as follows: Test Example 5: cabbage root immersion, Plutella xylostella, against comparative compounds A and B. The following applies: 25 ppm; root immersion 5 days; 10 second-instar larvae; after 5 days at 24° C. Here is the method: as §2, with “(1), (4), (10), (82),” for “(94) or”, “A or B” for “D”, “a” for “a ice cream”
as §1

The values below come from patent US20090176786A1, “Benzoylurea Compounds and Use Thereof” (priority 2005, published 2009).

In general, pest or weed control refers to the degree to which the test organism was suppressed or injured, in per cent. Read a low pest or weed control as a weak effect. In the test on Plutella xylostella [1], `CN(C(=O)c1c(F)cccc1F)C(=O)N(C)c1ccc(SC(F)(F)F)cc1F` [(10)] gave a pest or weed control at 25 ppm of 100%. The compound also yielded a control rate in the test on Coptotermes formosanus of 65%.
`CN(C(=O)c1c(F)cccc1F)C(=O)N(C)c1ccc(SC(F)(F)C(F)F)cc1F` [(12)] had a pest or weed control at 25 ppm in the test with Plutella xylostella [1] of 100%. In the test with Coptotermes formosanus, this compound had a control rate of 60%.
Take `CN(C(=O)NC(=O)c1c(F)cccc1F)c1ccc(SC(F)(F)C(F)F)cc1` [(94)]: the pest or weed control at 500 ppm in the test with Plutella xylostella [2] and in the test on Spondoptela litura was 100% in each case. For the same compound, the dead pest rate in the test with Plutella xylostella [3] turned out to be 100%.
On to `O=C(NC(=O)c1c(F)cccc1F)Nc1ccc(SC(F)(F)F)cc1F` [comparative compound A], for which, in the test on Plutella xylostella [4], the dead pest rate came to 5%.
For the compound `O=C(NC(=O)c1c(F)cccc1F)Nc1ccc(SC(F)(F)C(F)F)cc1` [comparative compound D, reference compound], the dead pest rate in the test on Plutella xylostella [3] amounted to 20%.
